Experimental data published in ChEMBL document CHEMBL1201862, “PubChem BioAssay data set” (2004).
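Dose response: 5 concentrations. Exposure: 48 h. Format: 96-well plates. Endpoint: linear interpolation; highest concentration if not reached. GI50 marks 50% less growth.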 The source made the active and inactive calls. No stated cut-off is given here; in the data, active = GI50 up to about 1.1 µM and inactive = higher.

Tests used:
Experiment in all cases: NCI-60 cell line screen, 48 h
NCI/ADR-RES = system: NCI/ADR-RES
T47D = system: T47D
Hs-578T = system: Hs-578T
RPMI-8226 = system: RPMI-8226
Malme-3M = system: Malme-3M
MDA-N = system: MDA-N
SNB-75 = system: SNB-75
CAKI-1 = system: CAKI-1
SR = system: SR
HL-60 = system: HL-60
LOX IMVI = system: LOX IMVI
SN12C = system: SN12C
NCI-H522 = system: NCI-H522
EKVX = system: EKVX
TK-10 = system: TK-10
UO-31 = system: UO-31
MOLT-4 = system: MOLT-4
CCRF-CEM = system: CCRF-CEM
HCC 2998 = system: HCC 2998
NCI-H226 = system: NCI-H226

SMILES | GI50 (NCI/ADR-RES) | GI50 (T47D) | GI50 (Hs-578T) | GI50 (RPMI-8226) | GI50 (Malme-3M) | GI50 (MDA-N) | GI50 (SNB-75) | GI50 (CAKI-1) | GI50 (SR) | GI50 (HL-60) | GI50 (LOX IMVI) | GI50 (SN12C) | GI50 (NCI-H522) | GI50 (EKVX) | GI50 (TK-10) | GI50 (UO-31) | GI50 (MOLT-4) | GI50 (CCRF-CEM) | GI50 (HCC 2998) | GI50 (NCI-H226)
O=[N+]([O-])c1ccc(C(=S)Nc2ccccc2)o1 | 2.16 µM (inactive) | 4.33 µM (inactive) | 3.71 µM (inactive) | 1.53 µM (inactive) | 2.91 µM (inactive) | 2.96 µM (inactive) | 7.67 µM (inactive) | 4.11 µM (inactive) | 1.79 µM (inactive) | 2.1 µM (inactive) | 2.29 µM (inactive) | 2.42 µM (inactive) | 1.34 µM (inactive) | 5.11 µM (inactive) | 4.74 µM (inactive) | 2.32 µM (inactive) | 1.26 µM (inactive) | 2.45 µM (inactive) | 1.69 µM (inactive) | 
COC(=O)C1c2c(c3ccccc3n2C(=O)OC)CCN2CCC1C(S(=O)(=O)c1ccccc1)C2=O (stereo unspecified) | > 100 µM (inactive) | > 100 µM (inactive) | > 100 µM (inactive) | 30.6 µM (inactive) | > 100 µM (inactive) | > 100 µM (inactive) | > 100 µM (inactive) | > 100 µM (inactive) | 87.7 µM (inactive) | 90.6 µM (inactive) | > 100 µM (inactive) | > 100 µM (inactive) | 89.3 µM (inactive) | > 100 µM (inactive) | > 100 µM (inactive) | > 100 µM (inactive) | 40.5 µM (inactive) | > 100 µM (inactive) |  | 24 µM (inactive)
COc1ccc2c(c1OC)C(=O)N1C2=Cc2c(cc3c(c2OC)OCO3)CC1N(C)C (stereo unspecified) | 26.4 µM (inactive) | 24.4 µM (inactive) | 34.8 µM (inactive) | 22.8 µM (inactive) | 51.4 µM (inactive) | 95.3 µM (inactive) | 29.8 µM (inactive) | > 100 µM (inactive) | 28.9 µM (inactive) | 24.9 µM (inactive) |  | 35.9 µM (inactive) | 28.9 µM (inactive) | 65.8 µM (inactive) | 96.6 µM (inactive) | 29.9 µM (inactive) | 34.5 µM (inactive) | 27.7 µM (inactive) | > 100 µM (inactive) | 40.4 µM (inactive)
COc1ccc2[nH]c3c(C)c4cnccc4c(C)c3c2c1 | 1.22 µM (inactive) | > 10 µM (inactive) | 5.55 µM (inactive) | 2.95 µM (inactive) | 1.45 µM (inactive) | 1.85 µM (inactive) | 2.25 µM (inactive) | 6.27 µM (inactive) | 3.57 µM (inactive) | 2.28 µM (inactive) |  | 2.24 µM (inactive) | 2.02 µM (inactive) | 1.87 µM (inactive) | 5.69 µM (inactive) |  | 0.571 µM (active) | 2.07 µM (inactive) | 1.67 µM (inactive) | 1.4 µM (inactive)
CC(=O)O[C@H]1CC[C@@]2(C)C(=CC[C@@H]3[C@@H]2CC[C@]2(C)Nc4c(cnn4S(C)(=O)=O)C[C@@H]32)C1 | > 100 µM (inactive) | 36.1 µM (inactive) | 62.4 µM (inactive) | 32.3 µM (inactive) | > 100 µM (inactive) | 60.1 µM (inactive) | 69.3 µM (inactive) | 49.9 µM (inactive) | 40.4 µM (inactive) | 23.4 µM (inactive) |  | > 100 µM (inactive) | 41.1 µM (inactive) |  |  | 76.7 µM (inactive) | 20.1 µM (inactive) | 37.2 µM (inactive) | > 100 µM (inactive) | 35.2 µM (inactive)
CC(=O)OCCN(C1=NCCN1)/[N+](C=c1ccc(=C=[N-])cc1)=C/c1ccc(C#N)cc1 | 94.6 µM (inactive) | > 100 µM (inactive) | > 100 µM (inactive) |  | > 100 µM (inactive) | > 100 µM (inactive) | > 100 µM (inactive) | > 100 µM (inactive) | > 100 µM (inactive) |  | > 100 µM (inactive) | > 100 µM (inactive) | > 100 µM (inactive) | > 100 µM (inactive) | > 100 µM (inactive) | > 100 µM (inactive) | > 100 µM (inactive) | > 100 µM (inactive) | > 100 µM (inactive) | > 100 µM (inactive)
Cc1c2c(n(CCc3ccc(Cl)cc3)c1C)NN=C(C#N)S2(=O)=O | 61.9 µM (inactive) | > 100 µM (inactive) | > 100 µM (inactive) | > 100 µM (inactive) | 51.8 µM (inactive) | 64.7 µM (inactive) | > 100 µM (inactive) |  | 61.9 µM (inactive) |  | > 100 µM (inactive) | > 100 µM (inactive) |  | > 100 µM (inactive) | > 100 µM (inactive) | > 100 µM (inactive) | 69.3 µM (inactive) |  | > 100 µM (inactive) | > 100 µM (inactive)
